Laboratory results as given in US10030027B2, “Soluble guanylate cyclase stimulators” (MERCK SHARP & DOHME CORP., priority 2015, dated 2018).

Legend:
sGC α1/β1 heterodimer = sGC α1/β1 heterodimer (Homo sapiens (Human), UniProt Q02108+Q02153); test: Cell-based sGC functional assay (cyclic GMP assay for sGC activator: CASA assay); settings: CHO-K1/sGC cells; for Emax: CHO-K1, activity expressed as percentage of compound A (standard), read-out: % Activation; for EC50: inflection point, 4P fit, read-out: IP
Source text: Cell-Based sGC Functional Assay (Cyclic GMP Assay for sGC Activator: CASA Assay)
Soluble guanylate cyclase (sGC) is a heme-containing enzyme that converts GTP to secondary messenger cGMP. Increases in cGMP levels affect several physiological processes including vasorelaxation through multiple downstream pathways. […] Heme-dependent activators (HDAs) preferentially activate sGC containing a ferrous heme group. To determine the effect of sGC activators on enzyme activity, the CASA assay was developed to monitor the generation of cGMP in a cell line that stably expresses the heterodimeric sGC protein.
A CHO-K1 cell line stably expressing the sGC α1/β1 heterodimer was generated using a standard transfection protocol. CHO-K1 cells were transfected with plasmids pIREShyghsGCα1 and pIRESneo-hsGCβ1 simultaneously using FUGENE reagent. Clones that stably express both subunits were selected with hygromycin and neomycin for ˜2 weeks. Clone #7 was chosen for the assay and was designated CHO-K1/sGC. CHO-K1/sGC cells were maintained in F-K12 medium containing 10% heat-inactivated Fetal Bovine Serum (FBS), 100 μg/mL penicillin/streptomycin, 0.5 mg/mL hygromycin and 0.25 mg/mL G418. The cells were then cryopreserved in LN2. On the day of the assay, the cells were thawed and resuspended in EBSS Assay Buffer (Sigma, E3024) supplemented with 5 mM MgCl2, 10 mM HEPES (4-(2-hydroxyethyl)piperazine-1-ethanesulfonic acid) and 0.05% BSA (bovine serum albumin) (EAB) and cell density was then adjusted to 2.25×10^5/mL with EAB. IBMX (3-isobutyl-1-methylxanthin, 0.5 mM) was added to inhibit degradation of cGMP. Compounds were diluted from DMSO stock solutions and added to the assay at a final DMSO concentration of 2.5%. Cells were pre-incubated in the presence and absence of 1 μM of Diethylenetriamine/nitric oxide adduct (DETA-NO; Sigma, 17018) for 30 min at 25° C. Compounds are subsequently added and incubated for 1 hr at 37° C. At the end of the incubation period, the reaction was terminated and the cells were lysed with the detection reagents from Cisbio Kits. The level of intracellular cGMP was determined using an HTRF-based assay kit (CisBio, 62GM2PEC), which detects the displacement of a fluorescence labeled cGMP from its specific antibody. The cGMP produced by test compounds was directly compared to the maximum cGMP production (this value was set to equal 100% activation.) of the published sGC-HDA compound A:
(Example 1 in WO 2010/065275, published Jun. 10, 2010). The test compounds' activity were then expressed as a percentage of compound A, the standard in every experiment. This percent activation was calculated either in the presence or absence of DETA-NO which was then plotted. Inflection points (IP) and maximum fold induction was derived using Abase analysis software for 4P fit.

[1] = molecular target: human recombinant sGC enzyme (Homo sapiens (Human), UniProt Q02108+Q02153); test: Size Exclusion Chromatography (SEC) competition binding assay using [3H] Ex-77B as the radioligand; settings: [3H] Ex-77B radioligand, 24 hours at 37° C.
Description: Binding Assay: The binding potencies of sGC compounds to the human recombinant sGC enzyme were determined in a Size Exclusion Chromatography (SEC) competition binding assay using [^3H] Ex-77B as the radioligand. [^3H] Ex-77B was prepared using a standardardized tritium exchange procedure. The parent (non-labeled) molecule was first iodinated then a Pd-catalyzed iodine to tritium exchange provided the labeled compound. […] Assays were conducted in 96-well plates in a total volume of 200 μL. […] Non-specific binding was defined by competition with 1 μM of Ex-77B. After the incubation period, the binding mixtures were loaded onto the gel-filtration plate (ThermoFischer Cat. No. 89808) pre-equilibrated with binding buffer and spun at 1000×g for 3 min at 4° C. on a Bench top centrifuge. The collected eluates in White Frame Clear Well Isoplates (Perkin Elmer Cat #6005040) received 100 μl of UltimaGold scintillation cocktail. The sealed plates were shaken vigorously and span, and counted after 6 hours with a Wallac Microbeta TriLux 1450 LSC & Luminescence Counter (Perkin Elmer). Data from competition experiments were analyzed to determine Ki values using one site fit Ki equation.

| Emax (sGC α1/β1 heterodimer) [%] | EC50 (sGC α1/β1 heterodimer) [nM] | Ki [1] [nM] | SMILES |
| --- | --- | --- | --- |
| 124 | 109 | 0.1 | Cc1cccc(Cn2nc(-c3nc(N)c4c(n3)NC(=O)[C@@]4(C)c3nc(CC(C)(C)C(=O)O)cs3)c3ccc(Cl)cc32)c1F [Example 188A, (S)-3-(2-{4-amino-2-[6-chloro-1-(2-fluoro-3-methyl-benzyl)-1H-indazol-3-yl]-5-methyl-6-oxo-6,7-dihydro-5H-pyrrolo[2,3-d]pyrimidin-5-yl}-1,3-thiazol-4-yl)-2,2-dimethyl-propanoic acid] |
| 140 | 460 | 0.342 | Cc1cccc(Cn2nc(-c3nc(N)c4c(n3)NC(=O)[C@@]4(C)c3ccc(CCC(=O)O)cc3)c3ccccc32)c1 [Example 225B, (S)-3-(4-{4-amino-5-methyl-2-[1-(3-methylbenzyl)-1H-indazol-3-yl]-6-oxo-6,7-dihydro-5H-pyrrolo[2,3-d]pyrimidin-5-yl}phenyl)propanoic acid] |
| 141 | 207 | 0.164 | CC1(c2nc3cc(C(=O)O)ccc3o2)C(=O)Nc2nc(-c3nn(Cc4ccccc4F)c4cc(Cl)ccc34)nc(N)c21 (stereo not shown) [Example 168B, 2-{4-amino-2-[6-chloro-1-(2-fluorobenzyl)-1H-indazol-3-yl]-5-methyl-6-oxo-6,7-dihydro-5H-pyrrolo[2,3-d]pyrimidin-5-yl}-1,3-benzoxazole-5-carboxylic acid] |
| 101 | 3600 | 0.062 | CC1(c2cc(-c3nn[nH]n3)ccn2)C(=O)Nc2nc(-c3nn(Cc4ccccc4F)c4cc(Cl)ccc34)nc(N)c21 (stereo not shown) [Example 243A, 5-[4-(2H-tetrazol-5-yl)pyridin-2-yl]-4-amino-2-[6-chloro-1-(2-fluorobenzyl)-1H-indazol-3-yl]-5-methyl-5,7-dihydro-6H-pyrrolo[2,3-d] pyrimidin-6-one] |
| 104 | 577 | 0.091 | CC(C)(Cc1coc(C2(C)C(=O)Nc3nc(-c4nn(CC5CCCC5)c5ncccc45)nc(N)c32)n1)C(=O)O (stereo not shown) [Example 154A, 3-(2-{4-amino-2-[1-(cyclopentyl-methyl)-1H-pyrazolo[3,4-b]pyridin-3-yl]-5-methyl-6-oxo-6,7-dihydro-5H-pyrrolo[2,3-d]pyrimidin-5-yl}-1,3-oxazol-4-yl)-2,2-dimethyl-propanoic acid] |
| 102 | 294 | 0.096 | CC(C)(Cc1coc(C2(C)C(=O)Nc3nc(-c4nn(Cc5cccc(F)c5)c5ncccc45)nc(N)c32)n1)C(=O)O (stereo not shown) [Example 150A, 3-(2-{4-amino-2-[1-(3-fluoro-benzyl)-1H-pyrazolo [3,4-b]pyridin-3-yl]-5-methyl-6-oxo-6,7-dihydro-5H-pyrrolo[2,3-d]pyrimidin-5-yl}-1,3-oxazol-4-yl)-2,2-dimethyl-propanoic acid] |
| 114 | 133 | 0.109 | CC1(c2cccc(C(=O)O)c2)C(=O)Nc2nc(-c3nn(Cc4ccccc4F)c4cc(F)ccc34)nc(N)c21 (stereo not shown) [Example 191B, 3-{4-amino-2-[6-fluoro-1-(2-fluorobenzyl)-1H-indazol-3-yl]-5-methyl-6-oxo-6,7-dihydro-5H-pyrrolo[2,3-d]pyrimidin-5-yl} benzoic acid] |
| 130 | 700 | 1.5 | CC(C)(Cc1csc(C2(C)C(=O)Nc3nc(-c4nn(CCC(F)(F)F)c5ncc(F)cc45)nc(N)c32)n1)C(=O)O (stereo not shown) [Example 85A, 3-(2-{4-amino-2-[5-fluoro-1-(3,3,3-trifluoropropyl)-1H-pyrazolo[3,4-b]pyridin-3-yl]-5-methyl-6-oxo-6,7-dihydro-5H-pyrrolo[2,3-d]pyrimidin-5-yl}-1,3-thiazol-4-yl)-2,2-dimethylpropanoic acid] |
| 120 | 409 | 0.047 | CC(C)(Cc1coc(C2(C)C(=O)Nc3nc(-c4nn(Cc5ccccc5F)c5ncccc45)nc(N)c32)n1)C(=O)O (stereo not shown) [Example 1A, 3-(2-{4-Amino-2-[1-(2-fluorobenzyl)-1H-pyrazolo[3,4-b]pyridin-3-yl]-5-methyl-6-oxo-6,7-dihydro-5H-pyrrolo[2,3-d]pyrimidin-5-yl}oxazol-4-yl)-2,2-dimethylpropanoic acid] |
| 92.7 | 1030 | 0.098 | CC1(c2nc(C[C@@H](N)C(=O)O)co2)C(=O)Nc2nc(-c3nn(Cc4ccccc4F)c4cc(Cl)ccc34)nc(N)c21 (single isomer, unassigned) [Example 172A, 3-(2-{4-amino-2-[6-chloro-1-(2-fluorobenzyl)-1H-indazol-3-yl]-5-methyl-6-oxo-6,7-dihydro-5H-pyrrolo[2,3-d]pyrimidin-5-yl}-1,3-oxazol-4-yl)-D-alanine] |
| 103 | 2020 | 0.341 | CC(C)(C)CCn1nc(-c2nc(N)c3c(n2)NC(=O)[C@@]3(C)c2ccc(CCC(=O)O)cc2)c2cccnc21 [Example 210B, (S)-3-(4-{4-amino-2-[1-(3,3-dimethylbutyl)-1H-pyrazolo[3,4-b]pyridin-3-yl]-5-methyl-6-oxo-6,7-dihydro-5H-pyrrolo[2,3-d]pyrimidin-5-yl}phenyl)propanoic acid] |
| 109 | 203 | 0.099 | C[C@@]1(c2ccc(CCC(=O)O)cc2)C(=O)Nc2nc(-c3nn(Cc4ccccc4F)c4ncc(F)cc34)nc(N)c21 [Example 23B, (S)-3-(4-{4-amino-2-[5-fluoro-1-(2-fluorobenzyl)-1H-pyrazolo[3,4-b]pyridin-3-yl]-5-methyl-6-oxo-6,7-dihydro-5H-pyrrolo[2,3-d]pyrimidin-5-yl}phenyl)propanoic acid] |
| 76.1 | 3380 | 0.174 | CC1(c2ccnc(C(=O)O)c2)C(=O)Nc2nc(-c3nn(Cc4ccccc4F)c4cc(Cl)ccc34)nc(N)c21 (stereo not shown) [Example 143B, 4-{4-amino-2-[6-chloro-1-(2-fluoro-benzyl)-1H-indazol-3-yl]-5-methyl-6-oxo-6,7-dihydro-5H-pyrrolo[2,3-d]pyrimidin-5-yl} pyridine-2-carboxylic acid] |
| 105 | 142 | 0.096 | CCCCCn1nc(-c2nc(N)c3c(n2)NC(=O)[C@@]3(C)c2ccc(CCC(=O)O)cc2)c2ccc(Cl)cc21 [Example 43B, (S)-3-{4-[4-amino-2-(6-chloro-1-pentyl-1H-indazol-3-yl)-5-methyl-6-oxo-6,7-dihydro-5H-pyrrolo[2,3-d]pyrimidin-5-yl]phenyl}propanoic acid] |
| 94 | 2560 | 4.38 | COCCn1nc(-c2nc(N)c3c(n2)NC(=O)[C@@]3(C)c2ccc(CCC(=O)O)cc2)c2ccc(Cl)cc21 (single isomer, unassigned) [Example 40B] |
| – | – | 0.617 | CC(C)(Cc1coc(C2(C)C(=O)Nc3nc(-c4nn(CC5CCCCO5)c5ncccc45)nc(N)c32)n1)C(=O)O (single isomer, unassigned) [Example 124AB, 3-{2-[4-amino-5-methyl-6-oxo-2-{1-[tetrahydro-2H-pyran-2-ylmethyl]-1H-pyrazolo[3,4-b]pyridin-3-yl}-6,7-dihydro-5H-pyrrolo[2,3-d]pyrimidin-5-yl]-1,3-oxazol-4-yl}-2,2-dimethylpropanoic acid] |
